Reference: US20130183239A1, “ISOTOPIC CARBON CHOLINE ANALOGS” (IMPERIAL COLLEGE, priority 2010, published 2013)

Assays:
[1] = mouse, in vivo
Description: Metabolite analysis of tissues including liver, kidney and tumor by HPLC was also accomplished. […] Choline and its metabolites lack any UV chromophore to permit presentation of chromatograms of the cold unlabelled compound simultaneously with the radioactivity chromatograms.
Liver, kidney, and tumor samples were obtained at 30 min. All samples were snap-frozen in liquid nitrogen. For analysis, samples were thawed and kept at 4° C. immediately before use. To ˜0.2 mL plasma was added ice-cold methanol (1.5 mL). The mixture was then centrifuged (3 min, 15,493×g, 4jC). The supernatant was evaporated to dryness using a rotary evaporator (Heidoloph Instruments) at a bath temperature of 40° C. The residue was suspended in mobile phase (1.1 mL), clarified (0.2 Am filter), and analyzed by HPLC. Liver, kidney, and tumor samples were homogenized in ice-cold methanol (1.5 mL) using an IKA Ultra-Turrax T-25 homogenizer and subsequently treated as per plasma samples (above). All samples were analyzed by radio-HPLC on an Agilent 1100 series HPLC system (Agilent Technologies) equipped with a γ-RAM Model 3 γ-detector (IN/US Systems) and Laura 3 software (Lablogic). The stationary phase comprised a Waters μBondapak C18 reverse-phase column (300×7.8 mm) (Waters, Milford, Mass., USA). Samples were analyzed using a mobile phase comprising solvent A (acetonitrile/water/ethanol/acetic acid/1.0 mol/L ammonium acetate/0.1 mol/L sodium phosphate; 800/127/68/2/3/10) and solvent B (acetonitrile/water/ethanol/acetic acid/1.0 mol/L ammonium acetate/0.1 mol/L sodiumphosphate; 400/400/68/44/88/10) with a gradient of 0% B for 6 min, then 0→100% B in 10 min, 100% B for 0.5 min, 100→0% B in 1.5 min then 0% B for 2 min, delivered at a flow rate of 3 mL/min.

[2] = system: human melanoma (A375), prostate (PC3-M) and colon (HCT116) cancer cell lines; assay: In vitro 18F-D4-choline uptake in cancer cell lines; type: cell-based; details: the three cell lines over 30 min
Description: Uptake was measured in vehicle-treated (closed symbols) and hemicholinium-3-treated cells (5 mM; open symbols). Mean values+SEM are shown (n=3). Insert: representative western blot of choline kinase-α expression in the three cell lines. Actin was used as a loading control. Abbreviations: CKα, choline kinase alpha.
Cells (5×10^5) were plated into 6-well plates the night prior to analysis. On the day of the experiment, fresh growth medium, containing 40 μCi ^18F-D4-choline, was added to individual wells. Cell uptake was measured following incubation at 37° C. in a humidified atmosphere of 5% CO2 for 60 min. Plates were subsequently placed on ice, washed 3 times with ice-cold PBS and lysed in RIPA buffer (Thermo Fisher Scientific Inc., Rockford, Ill., USA; 1 mL, 10 min). […] Aliquots were snap-frozen and used for protein determination following radioactive decay using a BCA 96-well plate assay (Thermo Fisher Scientific Inc., Rockford, Ill., USA). Data were expressed as percent of total radioactivity per mg protein. For hemicholinium-3 treatment (5 mM; Sigma-Aldrich), cells were incubated with the compound 30 min prior to addition of radioactivity and for the duration of the uptake time course. […]

In the case of `[2H]C([2H])(O)C([2H])([2H])[N+](C)(C)C[18F]` [[^18F]D4-FCH, [^18F]fluoromethyl-[1,2-^2H4]-choline], the “kidney radioactivity as phosphocholine” value [1] is reported as 60.6±3.7%, the “kidney radioactivity in the form of betaine” value [1] is reported as 20.6±6.2% and the “unknown metabolite (possibly the aldehyde intermediate) in liver” value [1] is reported as 7.4±2.3%. The “unknown metabolite in kidney” value [1] was 8.8±0.2%, the “form of radioactivity in tumors” value ([1]; iv) was “mainly in the form of phosphocholine” and the “in vitro uptake of 18F-D4-choline” value [2] was “similar”.
